Experimental data as given in patent US20170172953A1, “SELF-ASSEMBLING DRUG DELIVERY VEHICLES WITH IONICALLY CROSS-LINKED DRUGS” (WILLIAM MARSH RICE UNIVERSITY, priority 2014, published 2017).
“Also recorded” adds a separate entry of the source.

How the values were obtained:
[1] = Parallel plate rheometry of crosslinked SLac peptide hydrogels; type: physicochemical; settings: drug as crosslinker of 1 w % SLac hydrogel, pH 7.4
Procedure: Peptide solutions were made by dissolving lyophilized SLac in 298 mM sucrose-water at a concentration of 2 w %, pH 7.4. Hydrogels were constructed by addition of Hank's balanced salt solution (HBSS) at a 1:1 ratio. Multivalent drugs were added at similar concentrations, approximating physiological doses, to SLac solutions with final concentrations of: SLac—0.4 mM (1 w %); concentration of positive lysine charges—0.8 mM; suramin—3.8 mM (0.5 w %) or 0.38 mM (0.05 w %); trypan blue—3.2 mM (0.2 w %); heparin ˜2.78 mM (5 w %); clodronate disodium—3.4 mM; phosphate buffer—38 mM and 5 mM; and 0.9% saline. Negatively charged polyvalent ions in buffer solution facilitated intermolecular ionic interactions with lysine residues, crosslinking the hydrogel. Rheological behavior of peptide hydrogels was determined using an 8 mm parallel plate geometry at a gap of 250 μm. 50 μL of hydrogel was constructed and, within 30 min, placed on stainless steel plates of a rheometer. A frequency sweep (0.1-100 Hz, at constant 1% strain), strain sweep (0-1000%/strain, at 1 Hz) and shear recovery (1% strain for 30 min, 100% strain for 60 s, 1% strain for 30 min) were performed. We ensured the phase angle δ≦90° to ensure no slipping.

[2] = Suramin drug loading and release from MDP hydrogel into HBSS; type: physicochemical
Procedure: Suramin was dissolved in 0.9% saline and loaded into MDP hydrogel (100 μL of SLac dissolved in 298 mM sucrose+100 μL of drug/saline) in microcentrifuge tubes. 1 mL of release media (HBSS) was added to gels placed in a humidified 5% CO2 cell culture incubator at 37° C. 200 μL aliquots of release media were assayed, with replenishment, daily for 30 days. To determine short term release kinetics, in a separate setup, aliquots were assayed at 1, 2, 4, 8, 12, 24, 48 and 72 hr. Concentration of drug was determined using UV spectrophotometry at 313 nm, n=5. Mass release data were plotted as a function of cumulative release of drug in Sigmaplot. Drug release was modeled using the Korsmeyer-Peppas equation.

Cc1ccc(C(=O)Nc2ccc(S(=O)(=O)O)c3cc(S(=O)(=O)O)cc(S(=O)(=O)O)c23)cc1NC(=O)c1cccc(NC(=O)Nc2cccc(C(=O)Nc3cc(C(=O)Nc4ccc(S(=O)(=O)O)c5cc(S(=O)(=O)O)cc(S(=O)(=O)O)c45)ccc3C)c2)c1 [suramin]
mechanical strength, storage modulus G′ / loss modulus G″ [1]: order of magnitude increase in mechanical strength with increase in concentration; also recorded: an order of magnitude higher G′/G″
mechanism of release ([2]; 1 mg/mL loaded gels): non-Fickian diffusion/Case II transport dependent
release exponent (t) of Korsmeyer-Peppas model ([2]; 1 mg/mL loaded gels): ≈ 1.0
mechanism of release ([2]; 10 mg/mL loaded gels): diffusion dependent
release exponent (t) of Korsmeyer-Peppas model ([2]; 10 mg/mL loaded gels): ≈ 0.5
Maximum cumulative suramin concentration ([2]; high loading): 0.6 mg/mL
Maximum cumulative suramin concentration ([2]; low loading): 0.04 mg/mL
drug release ([2]; over a 20 day period, from SLac-based scaffolds): approximately 50%
retention of drug ionically cross-linked ([2]; over a period of 30 days): up to 40%
drug releasing from hydrogel scaffolds ([2]; over the first 30 days, depending on loading concentration): 40-60%
